For the assay, the target named is T1, human full-length MKNK1 (Homo sapiens, UniProt Q9BUB5, T385D).
T1 construct: GST (N); purchased Carna Biosciences 02-145; host or cells: insect cells (baculovirus expression system)
As to the kind of experiment: MKNK1 kinase high ATP assay (TR-FRET). It is filed as biochemical. Particulars: TR-FRET, 2 mM ATP (high ATP), 15 min preincubation with enzyme, 30 min reaction at 22° C.; read-out: MKNK1 IC50. As for the experimental part:
MKNK1 Kinase High ATP Assay
MKNK1-inhibitory activity at high ATP of compounds of the present invention after their preincubation with MKNK1 was quantified employing the TR-FRET-based MKNK1 high ATP assay as described in the following paragraphs.
As substrate for the kinase reaction the biotinylated peptide biotin-Ahx-[…] (C-terminus in amide form) was used, which can be purchased e.g. from the company Biosyntan (Berlin-Buch, Germany).
For the assay 50 nL of a 100 fold concentrated solution of the test compound in DMSO was pipetted into a black low volume 384 well microtiter plate (Greiner Bio-One, Frickenhausen, Germany), 2 μL of a solution of MKNK1 in aqueous assay buffer [50 mM HEPES pH 7.5, 5 mM MgCl2, 1.0 mM dithiothreitol, 0.005% (v/v) Nonidet-P40 (Sigma)] was added and the mixture was incubated for 15 min at 22° C. to allow pre-binding of the test compounds to the enzyme before the start of the kinase reaction. Then the kinase reaction was started by the addition of 3 μL of a solution of adenosine-tri-phosphate (ATP, 3.3 mM=>final conc. in the 5 μL assay volume is 2 mM) and substrate (0.1 μM=>final conc. in the 5 μL assay volume is 0.06 μM) in assay buffer and the resulting mixture was incubated for a reaction time of 30 min at 22° C. The concentration of MKNK1 was adjusted depending of the activity of the enzyme lot and was chosen appropriate to have the assay in the linear range, typical concentrations were in the range of 0.003 μg/mL. The reaction was stopped by the addition of 5 μL of a solution of TR-FRET detection reagents (5 nM streptavidine-XL665 [Cisbio Bioassays, Codolet, France] and 1 nM anti-ribosomal protein S6 (pSer236)-antibody from Invitrogen [#44921G] and 1 nM LANCE EU-W1024 labeled ProteinG [Perkin-Elmer, product no. AD0071]) in an aqueous EDTA-solution (100 mM EDTA, 0.1% (w/v) bovine serum albumin in 50 mM HEPES pH 7.5).
The resulting mixture was incubated for 1 h at 22° C. to allow the formation of complex between the phosphorylated biotinylated peptide and the detection reagents. Subsequently the amount of phosphorylated substrate was evaluated by measurement of the resonance energy transfer from the Eu-chelate to the streptavidine-XL. Therefore, the fluorescence emissions at 620 nm and 665 nm after excitation at 350 nm were measured in a TR-FRET reader, e.g. a Rubystar (BMG Labtechnologies, Offenburg, Germany) or a Viewlux (Perkin-Elmer). The ratio of the emissions at 665 nm and at 622 nm was taken as the measure for the amount of phosphorylated substrate.

T1 sequence (Q9BUB5 1-424 isoform Q9BUB5-2 T344D): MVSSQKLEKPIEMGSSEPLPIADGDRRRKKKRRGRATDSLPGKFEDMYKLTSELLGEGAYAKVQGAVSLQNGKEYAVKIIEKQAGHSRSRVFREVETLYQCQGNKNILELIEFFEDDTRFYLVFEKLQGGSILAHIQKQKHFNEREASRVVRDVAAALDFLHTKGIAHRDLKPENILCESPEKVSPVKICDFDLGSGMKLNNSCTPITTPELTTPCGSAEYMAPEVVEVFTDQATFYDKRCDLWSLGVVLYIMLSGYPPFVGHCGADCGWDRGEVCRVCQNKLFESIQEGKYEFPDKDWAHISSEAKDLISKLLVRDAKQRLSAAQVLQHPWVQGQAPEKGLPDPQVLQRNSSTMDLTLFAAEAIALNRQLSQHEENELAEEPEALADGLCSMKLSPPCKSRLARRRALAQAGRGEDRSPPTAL

With `Cc1cc(Nc2ncnc3sc4c(c23)CC[C@H](C(=O)N2CCN(C)[C@H](C)C2)C4)c(=O)n2c1C(=O)NC21CS(=O)(=O)C1` [Example 71, 6-{[(7S)-7-{[(3R)-3,4-Dimethylpiperazin-1-yl]carbonyl}-5,6,7,8-tetrahydro[1]benzothieno[2,3-d]pyrimidin-4-yl]amino}-8-methyl-2H-spiro[imidazo[1,5-a]pyridine-3,3′-thietane]-1,5-dione 1′,1′-dioxide], the IC50 is 0.8 nM.

Take `CC1(C)NC(=O)c2c(Cl)cc(Nc3ncnc4sc5c(c34)CC[C@H](C(=O)N3C[C@H]4C[C@@H]3CO4)C5)c(=O)n21` [Example 116, 8-Chloro-3,3-dimethyl-6-({(7S)-7-[(1R,4R)-2-oxa-5-azabicyclo[2.2.1]heptane-5-carbonyl]-5,6,7,8-tetrahydro[1]benzothieno[2,3-d]pyrimidin-4-yl}amino)-2,3-dihydroimidazo[1,5-a]pyridine-1,5-dione]: the 50% inhibitory concentration (IC50) amounted to 0.3 nM.

Take `Cc1cc(Nc2ncnc3sc4c(c23)CC[C@H](C(=O)N(C)CCN(C)C)C4)c(=O)n2c1C(=O)NC21CCCCC1` [Example 12, (7S)—N-[2-(Dimethylamino)ethyl]-N-methyl-4-[(8′-methyl-1′,5′-dioxo-1′,5′-dihydro-2′H-spiro[cyclohexane-1,3′-imidazo[1,5-a]pyridin]-6′-yl)amino]-5,6,7,8-tetrahydro[1]benzothieno[2,3-d]pyrimidine-7-carboxamide]: the IC50 was found to be 0.2 nM.

On to `Cc1cc(Nc2ncnc3sc4c(c23)CC[C@H](C(=O)N2CC(N(C)C)C2)C4)c(=O)n2c1C(=O)NC21CS(=O)(=O)C1` [Example 69, 6-{[(7S)-7-{[3-(Dimethylamino)azetidin-1-yl]carbonyl}-5,6,7,8-tetrahydro[1]benzothieno[2,3-d]pyrimidin-4-yl]amino}-8-methyl-2H-spiro[imidazo[1,5-a]pyridine-3,3′-thietane]-1,5-dione 1′,1′-dioxide], for which the IC50 was determined as 2 nM.

On to `Cc1cc(Nc2ncnc3sc4c(c23)CC[C@H](C(=O)O)C4)c(=O)n2c1C(=O)NC21CSC1` [Example 44, (7S)-4-[(8-Methyl-1,5-dioxo-1,5-dihydro-2H-spiro[imidazo[1,5-a]pyridine-3,3′-thietan]-6-yl)amino]-5,6,7,8-tetrahydro[1]benzothieno[2,3-d]pyrimidine-7-carboxylic acid], for which the IC50 was determined as 17.4 nM.

As to `Cc1cc(Nc2ncnc3sc4c(c23)CC[C@H](C(=O)N2C[C@H]3C[C@@H]2CO3)C4)c(=O)n2c1C(=O)N[C@]21CC[C@@](O)(C(F)(F)F)CC1` [Example 64, (cis)-4-Hydroxy-8′-methyl-6′-({(7S)-7-[(1R,4R)-2-oxa-5-azabicyclo[2.2.1]hept-5-ylcarbonyl]-5,6,7,8-tetrahydro[1]benzothieno[2,3-d]pyrimidin-4-yl}amino)-4-(trifluoromethyl)-2′H-spiro[cyclohexane-1,3′-imidazo[1,5-a]pyridine]-1′,5′-dione], the half-maximal inhibitory concentration (IC50) turned out to be 3.8 nM.

For `Cc1cc(Nc2ncnc3sc4c(c23)CC[C@H](C(=O)N2CC(N(C)C)C2)C4)c(=O)n2c1C(=O)NC21CSC1` [Example 48, 6-{[(7S)-7-{[3-(Dimethylamino)azetidin-1-yl]carbonyl}-5,6,7,8-tetrahydro[1]benzothieno[2,3-d]pyrimidin-4-yl]amino}-8-methyl-2H-spiro[imidazo[1,5-a]pyridine-3,3′-thietane]-1,5-dione], the half-inhibitory concentration (IC50) worked out at 0.4 nM.

As for `Cc1cc(Nc2ncnc3sc4c(c23)CC[C@H](C(=O)N(C)C)C4)c(=O)n2c1C(=O)NC21CCC1` [Example 20, (7S)—N,N-Dimethyl-4-[(8′-methyl-1′,5′-dioxo-1′,5′-dihydro-2′H-spiro[cyclobutane-1,3′-imidazo[1,5-a]pyridin]-6′-yl)amino]-5,6,7,8-tetrahydro[1]benzothieno[2,3-d]pyrimidine-7-carboxamide], the IC50 stood at 0.6 nM.

For `Cc1cc(Nc2ncnc3sc4c(c23)CC[C@H](C(=O)N2CCN(C)[C@H](C)C2)C4)c(=O)n2c1C(=O)NC21CCC(F)(F)CC1` [Example 57, 6′-{[(7S)-7-{[(3R)-3,4-Dimethylpiperazin-1-yl]carbonyl}-5,6,7,8-tetrahydro[1]benzothieno[2,3-d]pyrimidin-4-yl]amino}-4,4-difluoro-8′-methyl-2′H-spiro[cyclohexane-1,3′-imidazo[1,5-a]pyridine]-1′,5′-dione], the IC50 stood at 1.4 nM.

Turning to `Cc1cc(Nc2ncnc3sc4c(c23)CC[C@H](C(=O)N2CCC2)C4)c(=O)n2c1C(=O)NC21CS(=O)(=O)C1` [Example 67, 6-{[(7S)-7-(Azetidin-1-ylcarbonyl)-5,6,7,8-tetrahydro[1]benzothieno[2,3-d]pyrimidin-4-yl]amino}-8-methyl-2H-spiro[imidazo[1,5-a]pyridine-3,3′-thietane]-1,5-dione 1′,1′-dioxide], the IC50 turned out to be 2 nM.

As to `Cc1cc(Nc2ncnc3sc4c(c23)CC[C@H](C(=O)N2CC[C@H](N(C)C)C2)C4)c(=O)n2c1C(=O)NC2(C)C` [Example 31, 6-{[(7S)-7-{[(3S)-3-(Dimethylamino)pyrrolidin-1-yl]carbonyl}-5,6,7,8-tetrahydro[1]benzothieno[2,3-d]pyrimidin-4-yl]amino}-3,3,8-trimethyl-2,3-dihydroimidazo[1,5-a]pyridine-1,5-dione], the IC50 was 0.9 nM.

On to `Cc1cc(Nc2ncnc3sc4c(c23)CC[C@H](C(=O)N2CCOC[C@H]2C)C4)c(=O)n2c1C(=O)NC21CCCCC1` [Example 18, 8′-methyl-6′-{[(7S)-7-{[(3R)-3-methylmorpholin-4-yl]carbonyl}-5,6,7,8-tetrahydro[1]benzothieno[2,3-d]pyrimidin-4-yl]amino}-2′H-spiro[cyclohexane-1,3′-imidazo[1,5-a]pyridine]-1′,5′-dione], for which the IC50 is 0.3 nM.

As for `Cc1cc(Nc2ncnc3sc4c(c23)CC[C@H](C(=O)N2CCN(C)[C@H](C)C2)C4)c(=O)n2c1C(=O)N[C@]21CC[C@@](O)(C(F)(F)F)CC1` [Example 83, (cis)-6′-{[(7S)-7-{[(3R)-3,4-Dimethylpiperazin-1-yl]carbonyl}-5,6,7,8-tetrahydro[1]benzothieno[2,3-d]pyrimidin-4-yl]amino}-4-hydroxy-8′-methyl-4-(trifluoromethyl)-2′H-spiro[cyclohexane-1,3′-imidazo[1,5-a]pyridine]-1′,5′-dione], the IC50 is 1.5 nM.

As for `Cc1cc(Nc2ncnc3sc4c(c23)CC[C@H](C(=O)O)C4)c(=O)n2c1C(=O)N[C@]21CC[C@@](O)(C(F)(F)F)CC1` [Example 59, (7S)-4-{[(cis)-4-Hydroxy-8′-methyl-1′,5′-dioxo-4-(trifluoromethyl)-1′,5′-dihydro-2′H-spiro[cyclohexane-1,3′-imidazo[1,5-a]pyridin]-6′-yl]amino}-5,6,7,8-tetrahydro[1]benzothieno[2,3-d]pyrimidine-7-carboxylic acid], the IC50 amounted to 37.9 nM.

In the case of `Cc1cc(Nc2ncnc3sc4c(c23)CC[C@H](C(=O)N2CC(N(C)C)C2)C4)c(=O)n2c1C(=O)NC2(C)C` [Example 30, 6-{[(7S)-7-{[3-(Dimethylamino)azetidin-1-yl]carbonyl}-5,6,7,8-tetrahydro[1]benzothieno[2,3-d]pyrimidin-4-yl]amino}-3,3,8-trimethyl-2,3-dihydroimidazo[1,5-a]pyridine-1,5-dione], the IC50 is 1.3 nM.

Take `Cc1cc(Nc2ncnc3sc4c(c23)CC[C@H](C(=O)N(C)C)C4)c(=O)n2c1C(=O)NC21CS(=O)(=O)C1` [Example 66, (7S)—N,N-Dimethyl-4-[(8-methyl-1′,1′-dioxido-1,5-dioxo-1,5-dihydro-2H-spiro[imidazo[1,5-a]pyridine-3,3′-thietan]-6-yl)amino]-5,6,7,8-tetrahydro[1]benzothieno[2,3-d]pyrimidine-7-carboxamide]: the IC50 was 3.1 nM.

Regarding `Cc1cc(Nc2ncnc3sc4c(c23)CC[C@H](C(=O)N2CCN(C)[C@H](C)C2)C4)c(=O)n2c1C(=O)NC2(C)C` [Example 32, 6-{[(7S)-7-{[(3R)-3,4-Dimethylpiperazin-1-yl]carbonyl}-5,6,7,8-tetrahydro[1]benzothieno[2,3-d]pyrimidin-4-yl]amino}-3,3,8-trimethyl-2,3-dihydroimidazo[1,5-a]pyridine-1,5-dione], the IC50 came to 0.5 nM.

The record behind these values is patent US20190388425A1, “SUBSTITUTED IMIDAZOPYRIDINPYRIMIDINES” (Bayer Pharma Aktiengesellschaft, priority 2017, published 2019).
